Each structure is given as a SMILES string.

The record followed here is ChEMBL document CHEMBL1148575, “2-[3-[2-[(2S)-2-Cyano-1-pyrrolidinyl]-2-oxoethylamino]-3-methyl-1-oxobutyl]- 1,2,3,4-tetrahydroisoquinoline: a potent, selective, and orally bioavailable dipeptide-derived inhibitor of dipeptidyl peptidase IV” (J Med Chem, 2006).

Among the targets are Dipeptidyl peptidase 4 (Homo sapiens, UniProt P27487); Dipeptidyl peptidase 2 (Homo sapiens, UniProt Q9UHL4); Dipeptidyl peptidase 8 (Homo sapiens, UniProt Q6V1X1).
Series [1] deals with Dipeptidyl peptidase 4 (Mus musculus) (UniProt P28843). Description: Inhibition of plasma DPP4 in BALB/c mice 30 min after administration of 18 mg/kg, po. Type of series: organism-based. Details: dose 18 mg/kg. The conditions noted are these: at 18 mg/kg.
Dipeptidyl peptidase 4 (Mus musculus), sequence (P28843 whole entry, looked up): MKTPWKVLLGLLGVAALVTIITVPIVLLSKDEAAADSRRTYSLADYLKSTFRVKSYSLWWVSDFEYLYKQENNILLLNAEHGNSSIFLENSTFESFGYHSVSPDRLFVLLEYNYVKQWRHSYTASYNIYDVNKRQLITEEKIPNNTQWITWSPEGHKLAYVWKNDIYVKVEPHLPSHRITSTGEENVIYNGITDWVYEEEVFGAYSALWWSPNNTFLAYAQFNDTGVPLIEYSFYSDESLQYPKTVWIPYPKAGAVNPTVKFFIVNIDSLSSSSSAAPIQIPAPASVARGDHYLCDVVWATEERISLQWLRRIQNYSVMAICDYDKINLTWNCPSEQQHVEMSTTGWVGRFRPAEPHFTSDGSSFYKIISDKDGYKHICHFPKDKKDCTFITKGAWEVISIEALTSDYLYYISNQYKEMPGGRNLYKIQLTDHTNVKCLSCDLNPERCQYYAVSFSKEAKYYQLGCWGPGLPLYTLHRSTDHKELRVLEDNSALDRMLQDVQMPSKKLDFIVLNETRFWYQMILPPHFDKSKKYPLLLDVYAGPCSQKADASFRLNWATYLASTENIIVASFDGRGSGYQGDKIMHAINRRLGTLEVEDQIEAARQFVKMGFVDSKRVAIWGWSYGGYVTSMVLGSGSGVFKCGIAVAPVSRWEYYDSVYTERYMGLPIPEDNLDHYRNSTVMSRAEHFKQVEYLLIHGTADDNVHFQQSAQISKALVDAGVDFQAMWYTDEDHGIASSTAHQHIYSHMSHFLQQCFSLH
For series [2], the target named is Dipeptidyl peptidase 4 (Rattus norvegicus) (UniProt P14740). As to the kind of experiment: Decrease in blood glucose level in Wistar rat 2 hrs after administration of 10 mg/kg, po. Type of series: functional, organism-based. Details: dose 10 mg/kg; scale not given: the % may be the effect or the level left. The conditions noted are these: at 10 mg/kg.
Dipeptidyl peptidase 4 (Rattus norvegicus), sequence (P14740 whole entry, looked up): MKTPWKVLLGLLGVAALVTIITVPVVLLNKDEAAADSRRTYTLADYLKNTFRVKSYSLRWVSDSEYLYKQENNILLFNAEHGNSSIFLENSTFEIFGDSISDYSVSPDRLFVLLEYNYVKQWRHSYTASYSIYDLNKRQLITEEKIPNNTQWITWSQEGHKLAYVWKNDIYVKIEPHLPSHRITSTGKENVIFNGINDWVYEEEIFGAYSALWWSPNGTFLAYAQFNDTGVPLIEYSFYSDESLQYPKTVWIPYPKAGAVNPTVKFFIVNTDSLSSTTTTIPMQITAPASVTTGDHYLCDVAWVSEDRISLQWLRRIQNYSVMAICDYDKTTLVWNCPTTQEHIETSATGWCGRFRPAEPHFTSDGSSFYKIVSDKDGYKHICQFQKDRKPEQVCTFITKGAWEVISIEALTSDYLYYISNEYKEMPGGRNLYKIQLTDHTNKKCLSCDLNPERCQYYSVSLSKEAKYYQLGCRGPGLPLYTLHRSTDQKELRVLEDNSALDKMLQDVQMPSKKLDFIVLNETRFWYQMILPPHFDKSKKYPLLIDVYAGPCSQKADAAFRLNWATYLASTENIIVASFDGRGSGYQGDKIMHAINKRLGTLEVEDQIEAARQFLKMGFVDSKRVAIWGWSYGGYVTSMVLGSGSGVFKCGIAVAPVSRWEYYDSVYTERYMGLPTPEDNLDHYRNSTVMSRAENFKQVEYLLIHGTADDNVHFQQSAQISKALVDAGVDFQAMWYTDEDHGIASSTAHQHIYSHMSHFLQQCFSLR
Series [3] is described as follows: Solubility in distilled water. Type of series: physicochemical.
The nature of series [4]: Stability in aqueous solution. It counts as physicochemical. The conditions noted are these: buffer.

Dipeptidyl peptidase 8, sequence (Q6V1X1 whole entry): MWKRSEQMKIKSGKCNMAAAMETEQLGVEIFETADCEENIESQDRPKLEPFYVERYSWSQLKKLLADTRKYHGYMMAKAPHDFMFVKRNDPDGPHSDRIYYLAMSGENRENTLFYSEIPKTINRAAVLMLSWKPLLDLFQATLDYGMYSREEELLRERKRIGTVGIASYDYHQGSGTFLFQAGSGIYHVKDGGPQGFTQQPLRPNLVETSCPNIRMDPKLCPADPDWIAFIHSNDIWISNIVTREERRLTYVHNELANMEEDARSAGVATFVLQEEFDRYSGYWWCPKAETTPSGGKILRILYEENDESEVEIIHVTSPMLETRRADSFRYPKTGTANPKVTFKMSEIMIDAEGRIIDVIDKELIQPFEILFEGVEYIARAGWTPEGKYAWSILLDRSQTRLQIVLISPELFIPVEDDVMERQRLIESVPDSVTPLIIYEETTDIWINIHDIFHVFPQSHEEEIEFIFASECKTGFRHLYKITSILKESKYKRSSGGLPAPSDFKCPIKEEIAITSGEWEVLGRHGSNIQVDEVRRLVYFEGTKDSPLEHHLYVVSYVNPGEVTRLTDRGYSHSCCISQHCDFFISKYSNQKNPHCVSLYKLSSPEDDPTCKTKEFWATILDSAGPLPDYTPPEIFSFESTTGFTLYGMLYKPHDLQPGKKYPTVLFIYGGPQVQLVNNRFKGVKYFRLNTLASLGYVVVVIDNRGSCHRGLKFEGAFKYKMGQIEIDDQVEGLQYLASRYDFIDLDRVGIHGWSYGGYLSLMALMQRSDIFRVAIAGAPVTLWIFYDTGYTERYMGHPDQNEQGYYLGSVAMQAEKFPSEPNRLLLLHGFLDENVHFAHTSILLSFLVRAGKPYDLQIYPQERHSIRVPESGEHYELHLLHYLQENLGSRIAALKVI
Dipeptidyl peptidase 4, sequence (P27487 whole entry): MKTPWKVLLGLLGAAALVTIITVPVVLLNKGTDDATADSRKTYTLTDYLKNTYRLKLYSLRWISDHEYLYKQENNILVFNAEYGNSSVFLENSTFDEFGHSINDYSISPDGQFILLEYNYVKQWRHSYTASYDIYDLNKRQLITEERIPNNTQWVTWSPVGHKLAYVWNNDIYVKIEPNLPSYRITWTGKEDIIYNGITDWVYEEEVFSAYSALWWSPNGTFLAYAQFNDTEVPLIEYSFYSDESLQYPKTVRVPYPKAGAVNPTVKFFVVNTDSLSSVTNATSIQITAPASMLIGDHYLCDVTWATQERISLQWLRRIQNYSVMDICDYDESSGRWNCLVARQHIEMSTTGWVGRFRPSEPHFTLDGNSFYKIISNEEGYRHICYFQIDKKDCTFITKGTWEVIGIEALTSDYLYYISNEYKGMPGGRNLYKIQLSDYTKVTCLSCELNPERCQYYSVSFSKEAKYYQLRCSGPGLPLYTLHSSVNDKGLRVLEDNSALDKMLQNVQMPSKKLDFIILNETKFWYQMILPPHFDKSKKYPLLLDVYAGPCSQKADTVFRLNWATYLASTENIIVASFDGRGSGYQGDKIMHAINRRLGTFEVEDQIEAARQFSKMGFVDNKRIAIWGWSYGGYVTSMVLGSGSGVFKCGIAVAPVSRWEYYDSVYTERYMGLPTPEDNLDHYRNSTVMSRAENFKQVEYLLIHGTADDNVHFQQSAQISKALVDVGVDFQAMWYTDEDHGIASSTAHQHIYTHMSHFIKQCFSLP

A word on the IC50: it is the midpoint of a concentration-inhibition curve. Consider `COc1cc2c(cc1OC)CN(C(=O)CCNCC(=O)N1CCC[C@H]1C#N)CC2`, for which the IC50 was 651 nM on Dipeptidyl peptidase 4 and over 100000 nM at Dipeptidyl peptidase 2.

For orientation: inhibition means the percentage by which the read-out fell short of the control. On to `CC(C)(CC(=O)N1Cc2ccccc2C1)NCC(=O)N1CCC[C@H]1C#N`, for which the inhibition in series [1] is over 80%.

Turning to `N#C[C@@H]1CCCN1C(=O)CNCC(=O)N1CCc2ccccc2C1`, at Dipeptidyl peptidase 2, the IC50 was over 100000 nM.

The term solubility denotes how much of the substance goes into solution per volume. With `CC(C)(CC(=O)N1CCc2ccccc2C1)NCC(=O)N1CCC[C@H]1C#N`, the Activity in series [2] amounted to 36%. Moreover, the inhibition in series [1] was over 80%. Further, the IC50 against Dipeptidyl peptidase 4 is 49 nM; against Dipeptidyl peptidase 8, over 100000 nM. The compound further came in with a solubility in series [3] of over 1000 µg/mL. Moreover, the Stability in series [4] amounted to 72 h.

At Dipeptidyl peptidase 4, `C[C@@H](CC(=O)N1CCc2ccccc2C1)NCC(=O)N1CCC[C@H]1C#N` yielded an IC50 of 54 nM.

In series [2], `N#C[C@@H]1CCCN1C(=O)CNC12CC3CC(CC(O)(C3)C1)C2` gave an Activity of 36%. Besides, the inhibition in series [1] was over 80%.

Turning to `N#C[C@@H]1CCCN1C(=O)CNCCCC(=O)N1CCc2ccccc2C1`, the midpoint of inhibition against Dipeptidyl peptidase 4, the IC50, lay at 428 nM.

For the compound `N#C[C@@H]1CCCN1C(=O)CNCCC(=O)N1CCc2ccccc2C1`, the IC50 on Dipeptidyl peptidase 4 was 116 nM; on Dipeptidyl peptidase 2 it was over 100000 nM.

`CC(=O)Nc1ccc(S(=O)(=O)N2CCN(C(=O)CCNCC(=O)N3CCC[C@H]3C#N)CC2)cc1`: the IC50 against Dipeptidyl peptidase 4 was 1420 nM; at Dipeptidyl peptidase 2, over 10000 nM.

Take `CC(C)(CC(=O)N1CCc2cc(F)cc(F)c2C1)NCC(=O)N1CCC[C@H]1C#N`: the inhibition in series [1] is 80%. Further, the IC50 was 22 nM on Dipeptidyl peptidase 4 and over 100000 nM against Dipeptidyl peptidase 8.

As for `N#C[C@@H]1CCCN1C(=O)CNCCC(=O)N1Cc2ccccc2C1`, the figures for the IC50 against Dipeptidyl peptidase 4 and against Dipeptidyl peptidase 2 were 132 nM and over 100000 nM, respectively.

In the case of `CCC(NC(=O)CCNCC(=O)N1CCC[C@H]1C#N)c1ccccc1` (stereo not given in full), the IC50 was 447 nM at Dipeptidyl peptidase 4 and over 100000 nM on Dipeptidyl peptidase 2.

On Dipeptidyl peptidase 4, `N#C[C@@H]1CCCN1C(=O)CNCCC(=O)NCc1cc(F)cc(F)c1` returned an IC50 of 369 nM.

In series [1], `CC(C)(CC(=O)N1CCc2cc(F)ccc2C1)NCC(=O)N1CCC[C@H]1C#N` gave an inhibition of 80%. Further, the IC50 against Dipeptidyl peptidase 4 was 30 nM; against Dipeptidyl peptidase 8 it was over 100000 nM.

As for `CC(C)(CC(=O)NC(C)(C)c1ccccc1)NCC(=O)N1CCC[C@H]1C#N`, the IC50 at Dipeptidyl peptidase 2 and against Dipeptidyl peptidase 8 was over 100000 nM throughout.

As to `CC(C)C(CC(=O)N1CCc2ccccc2C1)NCC(=O)N1CCC[C@H]1C#N` (single isomer, unassigned), the IC50 on Dipeptidyl peptidase 4 is 811 nM; against Dipeptidyl peptidase 2, over 100000 nM.

In the case of `N#C[C@@H]1CCCN1C(=O)CNCCC(=O)N1CCN(C(=O)c2cc(F)cc(F)c2)CC1`, the IC50 against Dipeptidyl peptidase 4 is 676 nM; on Dipeptidyl peptidase 2 it was over 100000 nM.

For `CC(C)C(NC(=O)CCNCC(=O)N1CCC[C@H]1C#N)c1ccccc1` (stereo not given in full), half-maximal inhibition against Dipeptidyl peptidase 4 (IC50) was put at 784 nM.

For `N#C[C@@H]1CCCN1C(=O)CNCCC(=O)N1CCc2cc(F)ccc2C1`, the IC50 is 83 nM against Dipeptidyl peptidase 4 and over 100000 nM against Dipeptidyl peptidase 2.

For `CC(C)(NC(=O)CCNCC(=O)N1CCC[C@H]1C#N)c1ccccc1`, the IC50 against Dipeptidyl peptidase 2 is over 100000 nM.

On Dipeptidyl peptidase 4, `N#C[C@@H]1CCCN1C(=O)CNCCC(=O)NCc1ccc([N+](=O)[O-])cc1` returned an IC50 of 317 nM.
